For one data set, the system named is CHO-K1 cells. Description: MTT cell viability assay on CHO-K1 cells. The class given is cell-based, Chinese hamster. The conditions noted are these: 24 h exposure. As to the method: Standard MTT assay (3-(4,5-dimethylthiazol-2-yl)-2,5-diphenyltetrazolium bromide; Sigma-Aldrich, Prague, Czechia) was used according to the manufacturer’s protocol on the CHO-K1 (Chinese hamster ovary, ECACC, Salisbury, United Kingdom) in order to compare the effect of different compounds within the series. The cells were cultured according to ECACC recommended conditions and seeded in a density of 8000 per well as described previously ([Soukup et al., 2020]). […] Thereafter, CHO-K1 cells were exposed to two-fold diluted series A, B, C or ten-fold diluted sodium hypochlorite for 24 h. Then the medium was replaced by a medium containing 0.5 mg/ml of MTT and the cells were allowed to produce formazan for approximately 3 h under surveillance. Thereafter, the medium with MTT was removed and crystals of formazan were dissolved in DMSO (100 μl/well). Cell viability was assessed spectrophotometrically by the amount of formazan produced. The absorbance was measured at 570 nm on Synergy HT (BioTek, Winooski, VT, United States). IC50 (half maximal inhibitory concentration) was then calculated from the control – subtracted triplicates using non-linear regression (four parameters) by GraphPad Prism 5.03 or 7.03 software (GraphPad Software Inc., San Diego, CA, United States). Final IC50 and SEM (standard error of the mean) values were obtained as a mean of three independent measurements.

Data set [1] has as its system E. faecalis biofilms on titanium surface. As to the kind of experiment: Biofilm susceptibility assay, live/dead staining CLSM. The class given is cell-based, Enterococcus faecalis. The conditions noted are these: for biofilm surface coverage change during the treatment: 1, 3 and 60 min of treatment; for proportion of live cells in biofilm: after 60 min of treatment. The method, then:
To grow the biofilms, an overnight culture of E. faecalis (average viable bacterial concentration of 1 × 10^8 CFU/ml) was diluted 100-fold in BHI. E. faecalis biofilms were formed on titanium radial disks (commercially pure titanium, grade 2) with 7 mm diameter and 1 mm thickness. Prior to the experiments all disks were sandblasted (FerroEcoBlast Europe; Microblast ceramic beads B120) to expose fresh titanium surface, cleaned in 70% ethanol and autoclaved at 134°C for 20 min. The biofilms were grown for 3 days at 37°C ± 1°C without shaking or changing of media to achieve a surface coverage of approximately 25% and a surface bacterial density of ∼1.5 × 10^11 bacteria […]. Biofilms grown on a titanium surface were exposed to 1.5 ml of A14, B14, and C14 dissolved in BHI for 1, 3, and 60 min. After treatment the individual disks were rinsed with saline solution to remove QACs as well as unattached bacteria. In laser treated biofilms samples were treated with QACs for 1 min followed by 10 s of Er:YAG – SSP laser treatment. The LightWalker Er:YAG (Fotona, Ljubljana, Slovenia) was set with the following parameters: laser wavelength 2940 nm; contact handpiece H14, Flat Sweeps fiber tip 400/14 positioned 5 mm above the biofilm disk, energy 20 mJ, frequency 15 Hz, water off, air off, single pulse modality – SSP (super short pulse – 50 μs). The titanium disks with their biofilm were positioned at the bottom of cylindrical irrigation system (7.5 mm diameter and 2 cm high) in the presence of 1.5 ml of either saline or the QAC dissolved in BHI. The antibacterial concentration was 250 μM which was the highest soluble QAC concentration in BHI broth. The rinsed biofilms were stained with 5 μL of premixed saline-diluted Syto 9 and propidium iodide stock solutions (1: 300) from LIVE/DEAD^TM BacLight^TM Bacterial Viability Kit L7012 (Thermo Fisher Scientific, Eugene, OR, United States). After 5 min of incubation in the dark the samples were observed by fluorescence microscope Zeiss Axio Observer Z1 equipped with confocal unit LSM 800 (CLSM). Z-stacks and tiles were taken at 100× or 20× magnification at three randomly selected view fields. Image acquisition and control of the microscope were performed with ZEN 2.3 (ZEISS GmbH, Germany). For the 100× magnification, blue 488 nm and yellow 561 nm lasers were set to 1% intensity, GaAsP PMT detectors to 700 V, pinhole to 71 μm, and the size of the acquired 8-bit images was 3476 × 3476 pixels. For the 20× magnification, blue 488 nm and yellow 561 nm lasers were set to 0.85% intensity, GaAsP PMT detectors to 700 V, pinhole to 50 μm and the size of acquired 8-bit images was 1306 × 1306 pixels. The typical Z-step of the Z-stack was 1 μm for 100× magnification and 3.26 μm for 20× magnification. The images were composed of four different view fields. A custom script was written (Image J) and used to evaluate the effect of treatment on the fraction of dead cells and biofilm surface coverage.

In data set [2] the test system is E. faecalis plankton and biofilm. Description: Comparison of effectiveness in plankton and biofilm (matched fraction of dead cells). The conditions noted are these: for dilution in plankton needed to match the fraction of dead cells in the biofilm: high density E. faecalis suspension 2.4 × 10^9 CFU/mL. The data set is classed as cell-based, Enterococcus faecalis. From the text: In plankton suspensions we were able to reach bactericidal concentration for all tested QACs. The situation was quite different in biofilms. The concentrations that work in plankton were not sufficient to kill all bacteria in the biofilm. […] Unfortunately, due to the solubility limit, it was not possible to increase the concentration of the QACs to concentrations that would kill all bacteria in the biofilm. Nevertheless, we can compare the effectiveness in plankton and biofilm if we decrease the concentration of biocide in the plankton to match the fraction of the dead cells in the biofilm. […] The experiment was performed at high density E. faecalis suspensions (2.4 × 10^9 CFU/mL) to mimic the high density of bacteria in a biofilm. By comparing QACs effectiveness at high initial planktonic densities we have largely eliminated the effect of the bacterial density and estimated the effect of biofilm induced changes on QACs sensitivity. One has to be careful, however, as bacterial cells in plankton differ from biofilm not only in cell density but also in cell metabolism and extracellular matrix viscoelasticity. To match the fraction of dead cells in the biofilm, the 10-fold dilution of compounds A14 and B14 were needed, whereas only 4-fold dilution of compound C14 was required. […] The activity of QACs in biofilms relative to plankton was two orders of magnitude […] than usually reported in the literature. Although our biofilms were mature, they were relatively thin (up to 10 μm) which may explain the relatively high efficiency of the QACs against biofilms. Similar observations have been made for S. mutans biofilms, where biofilm cells were only 8 times less susceptible to QACs compared to plankton bacteria ([López Pérez et al., 2017]).

The next data set concerns human hepatoma cell line. Set-up: method as in Christen et al., 2017. The settings on record: cytotoxicity, ref Christen et al., 2017; cited from earlier work.
A further data set has as its system Human alveolar cells. Set-up: method as in Kwon et al., 2019. The conditions noted are these: cytotoxicity, ref Kwon et al., 2019; cited from earlier work.
Data set [3] has as its system osteosarcoma cybrid cells. Also noted: method as in Datta et al., 2017. The conditions noted are these: cytotoxicity, ref Datta et al., 2017; cited from earlier work.

Turning to `CCCCCCCCCCCC[n+]1ccccc1` [Compound A12, 1-dodecylpyridinium], the IC50 in the data set with CHO-K1 cells (Cricetulus griseus) is 38.8 ± 0.9 µM.
With `CCCCCCCCCCCC[n+]1cccc(Cl)c1.[Br-]` [Compound B12, 1-dodecyl-3-chloropyridinium bromide], the melting point fell in the range of 68.5 to 69.2 °C. Also, the IC50 in the data set on CHO-K1 cells (Cricetulus griseus) turned out to be 25.5 ± 2.5 µM.
As for `CCCCCCCCCCCCCC[n+]1cccc(Cl)c1.[Br-]` [Compound B14, 1-tetradecyl-3-chloropyridinium bromide], the IC50 in the data set with CHO-K1 cells (Cricetulus griseus) amounted to 17.2 ± 1.3 µM. In data set [1] (250 μM), the “biofilm surface coverage change during the treatment” value is “did not change significantly” and the “proportion of live cells in biofilm” value came to 14%. Also, the “dilution in plankton needed to match the fraction of dead cells in the biofilm” value in data set [2] is 10 fold.
Compound `CCCCCCCCCCCCCCCC[n+]1cccc(Cl)c1.[Br-]` [Compound B16, 1-hexadecyl-3-chloropyridinium bromide] came in with a melting point of 91.4 to 92.2 °C. Further, the IC50 in the data set with CHO-K1 cells (Cricetulus griseus) was 12.5 ± 1.1 µM.
For `CCCCCCCCCCCC[n+]1ccn(CCO)c1` [Compound C12], in the data set on CHO-K1 cells (Cricetulus griseus), the IC50 is 1.43 ± 3 µM.
As for `CCCCCCCCCCCCCC[n+]1ccn(CCO)c1.[Br-]` [Compound C14, 3-tetradecyl-1-(2-hydroxyethyl)imidazolium bromide], the IC50 with CHO-K1 cells (Cricetulus griseus) was determined as 1.19 ± 0.9 µM. In data set [1] (250 μM), the “biofilm surface coverage change during the treatment” value was “did not change significantly” and the “proportion of live cells in biofilm” value came to 3%. For the same compound, the “fraction of dead cells in biofilm” value in data set [1] (after 1 min of treatment, 250 μM) is reported as “majority of cells in the biofilm were dead”. Moreover, the “fraction of dead bacteria in biofilm” value in data set [1] (after 3 min of treatment, 250 μM) is 86 ± 4%. Also, in data set [2], the “resistance of biofilm bacteria compared to planktonic bacteria” value is 4 fold and the “dilution in plankton needed to match the fraction of dead cells in the biofilm” value is 4 fold.
As to `CCCCCCCCCCCCCCCC[n+]1ccn(CCO)c1` [Compound C16], the melting point is 49.2 to 50.1 °C. Also, the IC50 with CHO-K1 cells (Cricetulus griseus) is 1.03 ± 1 µM.
As for `[Na+].[O-]Cl` [Sodium hypochlorite, reference compound], in the data set on CHO-K1 cells, the IC50 turned out to be 6.45 ± 1.1 µM. In addition, in data set [1] (after 1 min of exposure, 3% V/V, positive control), the biofilm coverage entry is reported as “below 1%”.
Consider benzalkonium chloride, for which the EC50 in the data set with human hepatoma cell line was approximately 12.4 µM. Also, the IC50 with Human alveolar cells was approximately 14.8 µM; in data set [3], approximately 22.8 µM.

The record behind these values is PMC7606276, “The Antibacterial Effects of New N-Alkylpyridinium Salts on Planktonic and Biofilm Bacteria” (Frontiers in Microbiology, 2020).
